Measured values from patent US10112937B2, “P2X7 modulators and methods of use” (Janssen Pharmaceutica NV, priority 2013, dated 2018).

How the values were obtained:
human P2X7 [1] = target: T1, human P2X7 (Homo sapiens (Human), UniProt Q99572); experiment: P2X7 antagonism in human PBMCs (IL-1β release after LPS + Bz-ATP, ELISA); type: cell-based
human P2X7 [2] = target: T1, human P2X7; experiment: P2X7 antagonism in human whole blood (IL-1β release after LPS + Bz-ATP, ELISA); type: cell-based; settings: LPS 30 ng/ml + 1 mM Bz-ATP
Description: P2X7 Antagonism in Human Peripheral Blood Mononuclear Cells (PBMCs) and Human Whole Blood.
Human blood was collected using a blood donor program. PBMCs were isolated from blood using a Ficoll density gradient technique. Briefly, blood was laid on Ficoll solution and centrifuged at RT for 20 minutes at 2000 rpm. The buffy layer (between red blood cells and plasma) was carefully collected by aspiration, washed with PBS and centrifuged again at 1500 rpm for 15 minutes. The resulting cell pellet was washed and plated on 96 well-plates for experiments. For the Human Whole Blood experiments, 150 μl of human blood was platted on 96 well-plates. Lipopolysaccharide (LPS) (30 ng/ml) was added to each well and incubated for 1 hour. Test compounds were then added and incubated for 30 minutes. The P2X7 agonist, 2′(3′)-O-(4-benzoylbenzoyl) adenosine 5′ triphosphate (Bz-ATP) was then added at a final concentration of 0.5 mM (PBMC) or 1 mM (blood). Cells were incubated for an additional 1.5 hours. At that point, supernatant was collected and stored for IL-1β assay using manufacturer's protocol for enzyme-linked immunosorbent assay (ELISA). Data was expressed as percent control, where control is defined as the difference in IL-1β release in LPS+Bz-ATP samples and LPS only samples. […] Data are analyzed and graphed on Graphpad Prism 5. […]

rat P2X7 [3] = target: T2, rat P2X7 (Rattus norvegicus (Rat), UniProt Q64663); experiment: Radioligand binding ([3H]A-804598), rat P2X7-1321N1 cell membranes; settings: rat P2X7-1321N1 membranes, tritiated A-804598
Description: (§1) human or rat P2X7-1321N1 cells were collected and frozen @−80° C. On the day of the experiment, cell membrane preparations were made according to standard published methods. […] The assay was terminated by filtration (GF/B filters pre-soaked with 0.3% PEI) and washed with washing buffer (Tris-HCl 50 mM). The IC50 generated in the binding assay was corrected for tracer concentration and affinity of the tracer to derive at the affinity (Ki) of the test compounds. […] For analysis, each concentration point is averaged from triplicate values and the averaged values are plotted on Graphpad Prism.

rat P2X7 [4] = target: T2, rat P2X7; experiment: Ca2+ flux (FLIPR) in 1321N1 cells expressing recombinant rat P2X7; type: cell-based;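 note: Calcium-4 dye fluorescence change read 180 s after agonist addition, with cells preincubated 30 min with compound and dye in 96-well plates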
Description: (§2) P2X7 Antagonism in Recombinant Human P2X7 Cells or Recombinant Rat P2X7 Cells: (a) Ca^2+ Flux and (b) Radioligand Binding
(§3) 1321N1 cells expressing the recombinant human or rat P2X7 channel was cultured in HyQ DME/(HyClone/Dulbecco's Modified Eagle Medium) high glucose supplemented with 10% Fetal Bovine Serum (FBS) and appropriate selection marker. Cells were seeded at a density of 25000 cells/well (96-well clear bottom black walled plates) in 100 μl volume/well. On the day of the experiment, cell plates were washed with assay buffer, containing (in mM): 130 NaCl, 2 KCl, 1 CaCl2, 1 MgCl2, 10 HEPES, 5 glucose; pH 7.40 and 300 mOs. After the wash, cells were loaded with the Calcium-4 dye (Molecular Device) and incubated in the dark for 60 minutes. Test compounds were prepared at 250× the test concentration in neat DMSO. Intermediate 96-well compound plates were prepared by transferring 1.2 μL of the compound into 300 μL of assay buffer. A further 3× dilution occurred when transferring 50 μL/well of the compound plate to 100 μL/well in the cell plate. Cells were incubated with test compounds and dye for 30 minutes. […] The fluorescence change was measured 180 seconds after adding the agonist.

human P2X7 [5] = target: T1, human P2X7; experiment: Ca2+ flux (FLIPR) in 1321N1 cells expressing recombinant human P2X7; type: cell-based;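 note: cells loaded with Calcium-4 dye, preincubated with test compound for 30 min, fluorescence change read 180 s after agonist addition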
Description: as §2, §3

human P2X7 [6] = target: T1, human P2X7; experiment: Radioligand binding ([3H]A-804598), human P2X7-1321N1 cell membranes
Description: as §1

[7] = human PBMCs, test compound 10 μM
[8] = 1321N1 cells, recombinant rat P2X7, 250 μM BzATP
[9] = 1321N1 cells, recombinant human P2X7, 250 μM BzATP
[10] = human P2X7-1321N1 membranes, tritiated A-804598
[11] = Ca2+ flux, 250 μM BzATP, rat P2X7 1321N1 cells
[12] = 10 μM test compound, human PBMCs, LPS + Bz-ATP
[13] = Ca2+ flux, 250 μM BzATP, human P2X7 1321N1 cells
[14] = [3H]A-804598, human P2X7-1321N1 membranes

T1 sequence (Q99572 whole entry): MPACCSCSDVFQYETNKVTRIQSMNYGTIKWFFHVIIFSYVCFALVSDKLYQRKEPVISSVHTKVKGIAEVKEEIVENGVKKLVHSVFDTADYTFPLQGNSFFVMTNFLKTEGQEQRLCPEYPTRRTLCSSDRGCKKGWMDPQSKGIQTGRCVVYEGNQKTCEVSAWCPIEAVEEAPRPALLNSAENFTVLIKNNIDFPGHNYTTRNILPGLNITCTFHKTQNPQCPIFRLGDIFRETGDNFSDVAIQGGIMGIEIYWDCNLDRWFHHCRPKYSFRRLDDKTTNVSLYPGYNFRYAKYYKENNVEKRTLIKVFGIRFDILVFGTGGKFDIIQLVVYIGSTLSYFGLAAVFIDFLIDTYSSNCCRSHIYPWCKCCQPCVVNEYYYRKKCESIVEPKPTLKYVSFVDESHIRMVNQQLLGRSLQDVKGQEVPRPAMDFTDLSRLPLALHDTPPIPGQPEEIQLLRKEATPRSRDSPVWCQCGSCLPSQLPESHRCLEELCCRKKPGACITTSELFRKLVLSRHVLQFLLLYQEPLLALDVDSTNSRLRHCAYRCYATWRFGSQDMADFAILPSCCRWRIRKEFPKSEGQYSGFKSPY
T2 sequence (Q64663 whole entry): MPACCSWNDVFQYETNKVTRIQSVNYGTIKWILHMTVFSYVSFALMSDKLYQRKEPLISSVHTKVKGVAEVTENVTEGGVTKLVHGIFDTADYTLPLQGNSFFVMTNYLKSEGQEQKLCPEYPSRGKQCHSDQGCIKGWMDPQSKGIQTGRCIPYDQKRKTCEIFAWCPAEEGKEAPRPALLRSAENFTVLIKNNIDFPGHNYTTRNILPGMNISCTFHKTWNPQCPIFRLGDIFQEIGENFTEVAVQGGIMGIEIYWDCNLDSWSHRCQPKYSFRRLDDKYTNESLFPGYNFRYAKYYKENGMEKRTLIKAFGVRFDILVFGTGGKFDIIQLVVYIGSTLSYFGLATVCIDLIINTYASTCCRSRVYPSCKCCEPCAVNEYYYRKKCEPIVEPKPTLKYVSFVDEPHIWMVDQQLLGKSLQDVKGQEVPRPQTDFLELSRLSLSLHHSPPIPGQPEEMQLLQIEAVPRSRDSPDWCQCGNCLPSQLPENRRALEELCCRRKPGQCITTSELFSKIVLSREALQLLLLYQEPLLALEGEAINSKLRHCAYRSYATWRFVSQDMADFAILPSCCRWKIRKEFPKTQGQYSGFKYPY

Row | SMILES | PBMC 10 μM (% control) (human P2X7 [1]; [7]) | IC50 (human P2X7 [2]) | Ki (rat P2X7 [3]) | IC50 (rat P2X7 [4]; [8]) | PBMC 10 μM (% control) (human P2X7 [1]; test compound 10 μM, LPS 30 ng/ml + 0.5 mM Bz-ATP) | IC50 (human P2X7 [5]; [9]) | Ki (human P2X7 [6]; [10]) | IC50 (rat P2X7 [4]; [11]) | PBMC 10 μM (% control) (human P2X7 [1]; [12]) | IC50 (human P2X7 [5]; [13]) | Ki (human P2X7 [6]; [14])
1 | Cc1ccnc(-n2nnc3c2CCN(C(=O)c2cccc(C(F)(F)F)c2Cl)[C@@H]3C)n1 (single isomer, unassigned) [Example 235, (4R*)-(2-Chloro-3-(trifluoromethyl)phenyl)(4-methyl-1-(4-methylpyrimidin-2-yl)-6,7-dihydro-1H-[1,2,3]triazolo[4,5-c]pyridin-5(4H)-yl)methanone] | −3.7 % control | 17 nM | – | – | – | – | – | – | – | – | –
2 | C[C@@H]1c2nnn(-c3ncccn3)c2CCN1C(=O)c1cccc(C(F)(F)F)c1F (single isomer, unassigned) [Example 271, (R*)-(2-fluoro-3-(trifluoromethyl)phenyl)(4-methyl-1-(pyrimidin-2-yl)-6,7-dihydro-1H-[1,2,3]triazolo[4,5-c]pyridin-5(4H)-yl)methanone] | 14.3 % control | – | 1.6 nM | 20 nM | −3.7 % control | 1.7 nM | – | – | – | – | –
3 | Cc1cc(-n2nnc3c2CCN(C(=O)c2ccnc(C(F)(F)F)c2Cl)[C@@H]3C)ncc1F (single isomer, unassigned) [Example 371, (R*)-(3-chloro-2-(trifluoromethyl)pyridin-4-yl)(1-(5-fluoro-4-methylpyridin-2-yl)-4-methyl-6,7-dihydro-1H-[1,2,3]triazolo[4,5-c]pyridin-5(4H)-yl)methanone] | −2.3 % control | – | 47.3 nM | 42.5 nM | – | 4.3 nM | 17.6 nM | – | – | – | –
4 | Cc1ccnc(-n2nnc3c2CCN(C(=O)c2cccc(Cl)c2Cl)[C@H]3C)n1 (single isomer, unassigned) [Example 392, (S*)-(2,3-dichlorophenyl)(4-methyl-1-(4-methylpyrimidin-2-yl)-6,7-dihydro-1H-[1,2,3]triazolo[4,5-c]pyridin-5(4H)-yl)methanone] | 14.4 % control | – | – | 47.3 nM | – | 3.6 nM | 4 nM | – | – | – | –
5 | Cc1cc(-n2nnc3c2CCN(C(=O)c2ccnc(C(F)(F)F)c2F)C3C)ncc1F (stereo not drawn) [Example 367, (3-fluoro-2-(trifluoromethyl)pyridin-4-yl)(1-(5-fluoro-4-methylpyridin-2-yl)-4-methyl-6,7-dihydro-1H-[1,2,3]triazolo[4,5-c]pyridin-5(4H)-yl)methanone] | 0.9 % control | – | – | 2150 nM | – | 75.7 nM | 115 nM | – | – | – | –
6 | Cc1cc(-n2nnc3c2CCN(C(=O)c2ccnc(C(F)(F)F)c2Cl)C3C)ncc1F (stereo not drawn) [Example 370, (3-chloro-2-(trifluoromethyl)pyridin-4-yl)(1-(5-fluoro-4-methylpyridin-2-yl)-4-methyl-6,7-dihydro-1H-[1,2,3]triazolo[4,5-c]pyridin-5(4H)-yl)methanone] | −2.2 % control | – | – | 256 nM | – | 59.7 nM | 63.1 nM | – | – | – | –
7 | CC1c2nnn(-c3cccc(C(F)(F)F)n3)c2CCN1C(=O)c1cccc(C(F)(F)F)c1Cl (stereo not drawn) [Example 378, (2-chloro-3-(trifluoromethyl)phenyl)(4-methyl-1-(6-(trifluoromethyl)pyridin-2-yl)-6,7-dihydro-1H-[1,2,3]triazolo[4,5-c]pyridin-5(4H)-yl)methanone] | −0.1 % control | – | – | 137 nM | – | 78.9 nM | 158 nM | – | – | – | –
8 | CC1c2nnn(-c3ncc[nH]3)c2CCN1C(=O)c1cccc(C(F)(F)F)c1Cl (stereo not drawn) [Example 393, (1-(1H-imidazol-2-yl)-4-methyl-6,7-dihydro-1H-[1,2,3]triazolo[4,5-c]pyridin-5(4H)-yl)(2-chloro-3-(trifluoromethyl)phenyl)methanone] | 8.5 % control | – | – | 11100 nM | – | 51.2 nM | 89.1 nM | – | – | – | –
9 | CC1c2n[nH]c(-c3ccc(F)cn3)c2CCN1C(=O)c1cccc(C(F)(F)F)c1Cl (stereo not drawn) [Example 430, (2-chloro-3-(trifluoromethyl)phenyl)(3-(5-fluoropyridin-2-yl)-7-methyl-4,5-dihydro-2H-pyrazolo[3,4-c]pyridin-6(7H)-yl)methanone] | – | – | – | – | – | – | – | 158 nM | −4.0 % control | 70.8 nM | 36.3 nM
10 | CC1c2n[nH]c(-c3ncccn3)c2CCN1C(=O)c1cccc(Cl)c1Cl (stereo not drawn) [Example 431, (2,3-dichlorophenyl)(7-methyl-3-(pyrimidin-2-yl)-4,5-dihydro-2H-pyrazolo[3,4-c]pyridin-6(7H)-yl)methanone] | – | – | – | – | – | – | – | 320 nM | −6.4 % control | 6 nM | 12.3 nM
11 | CC1c2n[nH]c(-c3ccc(F)cc3)c2CCN1C(=O)c1cccc(C(F)(F)F)c1Cl (stereo not drawn) [Example 434, (2-chloro-3-(trifluoromethyl)phenyl)(3-(4-fluorophenyl)-7-methyl-4,5-dihydro-2H-pyrazolo[3,4-c]pyridin-6(7H)-yl)methanone] | – | – | – | – | – | – | – | 432 nM | 3.1 % control | 43.5 nM | 47.9 nM
12 | CC1c2n[nH]c(-c3ccnn3C)c2CCN1C(=O)c1cccc(C(F)(F)F)c1Cl (stereo not drawn) [Example 437, (2-chloro-3-(trifluoromethyl)phenyl)(7-methyl-3-(1-methyl-1H-pyrazol-5-yl)-4,5-dihydro-2H-pyrazolo[3,4-c]pyridin-6(7H)-yl)methanone] | – | – | – | – | – | – | – | 14600 nM | −11.7 % control | 240 nM | 144 nM
